Columns and labels:
[1] = target: CbTan2 (Clostridium butyricum, UniProt A0A6M0U600)
[2] = target: CbTan1 (Clostridium butyricum, UniProt C4IC90)
Chain of CbTan1 (C4IC90 25-633 limits assumed): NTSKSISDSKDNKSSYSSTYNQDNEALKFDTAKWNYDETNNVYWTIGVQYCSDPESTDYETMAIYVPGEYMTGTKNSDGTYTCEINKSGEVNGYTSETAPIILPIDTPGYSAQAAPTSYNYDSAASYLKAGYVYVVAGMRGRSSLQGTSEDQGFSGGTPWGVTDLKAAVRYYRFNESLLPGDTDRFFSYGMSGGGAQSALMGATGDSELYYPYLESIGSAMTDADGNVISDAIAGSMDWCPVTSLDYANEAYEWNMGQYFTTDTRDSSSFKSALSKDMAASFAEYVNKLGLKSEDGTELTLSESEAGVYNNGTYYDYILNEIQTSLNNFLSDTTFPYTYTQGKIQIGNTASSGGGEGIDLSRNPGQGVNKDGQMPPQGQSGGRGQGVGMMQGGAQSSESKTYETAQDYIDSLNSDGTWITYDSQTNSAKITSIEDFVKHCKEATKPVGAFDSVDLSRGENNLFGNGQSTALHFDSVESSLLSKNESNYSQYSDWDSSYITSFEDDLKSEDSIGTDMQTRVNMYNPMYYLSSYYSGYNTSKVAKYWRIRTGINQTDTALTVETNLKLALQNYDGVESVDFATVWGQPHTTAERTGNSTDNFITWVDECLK

Chain of CbTan2 (A0A6M0U600 1-490 limits assumed): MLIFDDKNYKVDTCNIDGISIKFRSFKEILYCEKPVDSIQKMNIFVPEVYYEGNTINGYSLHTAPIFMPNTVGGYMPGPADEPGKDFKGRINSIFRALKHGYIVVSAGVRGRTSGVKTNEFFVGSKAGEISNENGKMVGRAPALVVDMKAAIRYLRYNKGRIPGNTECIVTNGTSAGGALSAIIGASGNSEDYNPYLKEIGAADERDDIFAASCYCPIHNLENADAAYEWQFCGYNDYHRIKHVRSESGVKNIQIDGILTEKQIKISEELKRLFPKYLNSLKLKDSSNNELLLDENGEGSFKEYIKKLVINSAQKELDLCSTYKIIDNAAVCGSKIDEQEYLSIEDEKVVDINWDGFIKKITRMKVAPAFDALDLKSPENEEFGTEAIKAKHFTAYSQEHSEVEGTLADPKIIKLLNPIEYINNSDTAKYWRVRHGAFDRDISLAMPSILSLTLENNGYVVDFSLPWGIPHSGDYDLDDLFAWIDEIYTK

| SMILES | K i (mM) ^a [1] [mM] | K i (mM) ^a [2] [mM] |
| --- | --- | --- |
| O=C(O[C@@H]1Cc2c(O)cc(O)cc2O[C@@H]1c1cc(O)c(O)c(O)c1)c1cc(O)c(O)c(O)c1 [EGCG, epigallocatechin gallate] | 1.92 ± 0.59 | 1.11 ± 0.54 |
| O=C(O[C@@H]1O[C@H](CO)[C@@H](O)[C@H](O)[C@H]1O)c1cc(O)c(O)c(O)c1 [GG, β-glucogallin] | 8.51 ± 2.39 | 35.9 ± 6.77 |
| COC(=O)c1cc(O)c(O)c(O)c1 [MG, methyl gallate] | 44.0 ± 6.42 | – |

— PMC11571031 (Protein Science : A Publication of the Protein Society, 2024)
